Experiment [1] deals with Staphylococcus aureus. The experiment in a line: Antimicrobial activity against methicillin-resistant Staphylococcus aureus BAA-44 after 16 hrs by broth microdilution method. The class given is functional. The settings on record: BAA-44, 16 h. (In general: Broth dilution looks for growth in wells or tubes with falling amounts of substance.)
For experiment [2], the system named is Staphylococcus aureus. The experiment in a line: Antimicrobial activity against methicillin-susceptible Staphylococcus aureus ATCC 29213 after 16 hrs by broth microdilution method. In kind it is functional. As to conditions: ATCC 29213, 16 h.
The test system of experiment [3] is Acinetobacter baumannii. Kind of experiment: Inhibition of Acinetobacter baumannii ATCC 19606 biofilm formation after 24 hrs by crystal violet reporter assay. In kind it is functional, ATCC 19606 = CIP 70.34 = JCM 6841.
Experiment [4] concerns Acinetobacter baumannii. The experiment in a line: Antimicrobial activity against multidrug-resistant Acinetobacter baumannii BAA-1605 after 16 hrs by broth microdilution method. The class given is functional. The settings on record: BAA-1605, 16 h.
For experiment [5], the system named is Staphylococcus aureus. Kind of experiment: Inhibition of Staphylococcus aureus ATCC 29213 biofilm formation after 24 hrs by crystal violet reporter assay. In kind it is functional.
Experiment [6] deals with Escherichia coli. The experiment in a line: Inhibition of Escherichia coli ATCC 35695 biofilm formation after 24 hrs by crystal violet reporter assay. The class given is functional.
The subject of experiment [7] is Escherichia coli. Kind of experiment: Antimicrobial activity against Escherichia coli ATCC 35695 after 16 hrs by broth microdilution method. In kind it is functional. As to conditions: ATCC 35695, 16 h.
Experiment [8] deals with Staphylococcus epidermidis. The experiment in a line: Antimicrobial activity against Staphylococcus epidermidis ATCC 29886 after 16 hrs by broth microdilution method. As to conditions: ATCC 29886, 16 h. The class given is functional.
Experiment [9] deals with Acinetobacter baumannii. Kind of experiment: Antimicrobial activity against Acinetobacter baumannii ATCC 19606 after 16 hrs by broth microdilution method. As to conditions: ATCC 19606 = CIP 70.34 = JCM 6841, 16 h. The class given is functional.
In experiment [10] the test system is Staphylococcus epidermidis. Kind of experiment: Antimicrobial activity against methicillin-resistant Staphylococcus epidermidis ATCC 51625 after 16 hrs by broth microdilution method. In kind it is functional. The settings on record: ATCC 51625, 16 h.
The test system of experiment [11] is Acinetobacter baumannii. Kind of experiment: Inhibition of Acinetobacter baumannii BAA-1605 biofilm formation after 24 hrs by crystal violet reporter assay. In kind it is functional. A general note: A reporter such as luciferase makes a cellular process visible.
The subject of experiment [12] is Staphylococcus aureus. Kind of experiment: Inhibition of Staphylococcus aureus BAA-44 biofilm formation after 24 hrs by crystal violet reporter assay. In kind it is functional.
For the next experiment, the system named is Klebsiella pneumoniae. Kind of experiment: Antimicrobial activity against carbapenem-resistant Klebsiella pneumoniae BAA-2146 expressing […] gene after 16 hrs by broth microdilution method. The class given is functional. As to conditions: BAA-2146, 16 h.

The source made the active and inactive calls. The calls are words filed in the database; no cut-off is given here. A value given as a limit tells only on which side of the number the result lay.

For orientation: MIC means the least concentration at which growth counts as inhibited. Read a low MIC as inhibition by little substance.

Regarding `Cl.Nc1ncc(-c2ccccc2)n1CCCc1ccccc1`, the MIC turned out to be 32 µg/mL against Staphylococcus aureus [1]; 32 µg/mL with Staphylococcus aureus [2]; 32 µg/mL against Acinetobacter baumannii [4]; 32 µg/mL in the experiment with Escherichia coli [7]; 8 µg/mL in experiment [8]; 32 µg/mL in the experiment with Acinetobacter baumannii [9]. Also, the MIC in [10] was 32 µg/mL; against Klebsiella pneumoniae it was 128 µg/mL. For the same compound, the “inhibition (INH)” value with Acinetobacter baumannii [3] is 97%; in the experiment on Staphylococcus aureus [5], 95%; in the experiment with Escherichia coli [6], 94%; in the experiment on Acinetobacter baumannii [11] it was 97%; with Staphylococcus aureus [12] it was 94%.
Consider `Cl.Nc1ncc(Cc2ccccc2)n1CCCc1ccccc1`, for which the MIC against Staphylococcus aureus [1] came out at 32 µg/mL; in the experiment on Staphylococcus aureus [2], 32 µg/mL; against Acinetobacter baumannii [4] it was 32 µg/mL; in the experiment with Escherichia coli [7], 32 µg/mL; in experiment [8], 16 µg/mL; against Acinetobacter baumannii [9] it was 32 µg/mL. Further, the figures for the MIC (in experiment [10]; with Klebsiella pneumoniae) were 16 µg/mL and 128 µg/mL, respectively. The “inhibition (INH)” value in the experiment on Acinetobacter baumannii [3] is given as 96%; in the experiment with Staphylococcus aureus [5], 98%; with Escherichia coli [6], 97%; in the experiment on Acinetobacter baumannii [11], 94%; in the experiment with Staphylococcus aureus [12], 90%.
Turning to `CC(C)Cc1cnc(N)n1CCCc1ccccc1.Cl`, the MIC in the experiment on Staphylococcus aureus [1] came out at 32 µg/mL; in the experiment with Staphylococcus aureus [2] it was 64 µg/mL; with Acinetobacter baumannii [4] it was 32 µg/mL; against Escherichia coli [7], 16 µg/mL; in experiment [8] it was 4 µg/mL; in the experiment with Acinetobacter baumannii [9], 32 µg/mL. Besides, the MIC in [10] was found to be 32 µg/mL; against Klebsiella pneumoniae it was 128 µg/mL. The “inhibition (INH)” value with Acinetobacter baumannii [3] came to 96%; with Staphylococcus aureus [5], 87%; in the experiment with Escherichia coli [6], 92%; in the experiment on Acinetobacter baumannii [11], 97%; in the experiment with Staphylococcus aureus [12] it was 96%.
Regarding `CCCCCCCCCCn1c(CCCCCC)cnc1N.Cl`, the MIC in the experiment with Staphylococcus aureus [1] is 1 µg/mL; with Staphylococcus aureus [2] it was 1 µg/mL; in the experiment with Acinetobacter baumannii [4] it was 8 µg/mL; in the experiment with Escherichia coli [7], 1 µg/mL; in experiment [8] it was 0.25 µg/mL; against Acinetobacter baumannii [9], 8 µg/mL. In addition, the MIC turned out to be 1 µg/mL in experiment [10] and 32 µg/mL in the experiment with Klebsiella pneumoniae. In addition, the “inhibition (INH)” value in the experiment on Acinetobacter baumannii [3] is 91%; in the experiment with Staphylococcus aureus [5] it was 73%; in the experiment with Escherichia coli [6], 59%; in the experiment on Acinetobacter baumannii [11], 97%; in the experiment on Staphylococcus aureus [12], 83%.
As to `Cl.Nc1ncc(-c2ccccc2)n1Cc1ccccc1`, the MIC in the experiment with Staphylococcus aureus [1] turned out to be 4 µg/mL; against Staphylococcus aureus [2] it was 8 µg/mL; in the experiment with Acinetobacter baumannii [4], 16 µg/mL; in the experiment on Escherichia coli [7], 8 µg/mL; in experiment [8], 2 µg/mL; against Acinetobacter baumannii [9] it was 128 µg/mL. Besides, the MIC in experiment [10] worked out at 8 µg/mL; in the experiment with Klebsiella pneumoniae it was 128 µg/mL. The “inhibition (INH)” value with Acinetobacter baumannii [3] was found to be 96%; in the experiment with Staphylococcus aureus [5], 93%; in the experiment on Escherichia coli [6], 89%; with Acinetobacter baumannii [11] it was 97%; with Staphylococcus aureus [12] it was 95%.
`CCCCCCCCCCCCn1c(CCCCCC)cnc1N.Cl`: the MIC in the experiment on Staphylococcus aureus [1] is 2 µg/mL; against Staphylococcus aureus [2] it was 2 µg/mL; with Acinetobacter baumannii [4] it was more than 128 µg/mL; against Escherichia coli [7], 2 µg/mL; in experiment [8], 0.5 µg/mL; against Acinetobacter baumannii [9], 64 µg/mL. In addition, the MIC is 1 µg/mL in experiment [10] and more than 128 µg/mL in the experiment on Klebsiella pneumoniae.
In the case of `CCCCCCc1cnc(N)n1Cc1ccccc1.Cl`, the MIC in the experiment on Staphylococcus aureus [1] worked out at 32 µg/mL; against Staphylococcus aureus [2], 16 µg/mL; with Acinetobacter baumannii [4], 16 µg/mL; in the experiment on Escherichia coli [7], 32 µg/mL; in [8], 16 µg/mL; in the experiment on Acinetobacter baumannii [9], 16 µg/mL. In addition, the MIC in [10] was 16 µg/mL; in the experiment with Klebsiella pneumoniae, 64 µg/mL.
As for `CCCCCCc1cnc(N)n1CCCc1ccccc1.Cl`, the MIC against Staphylococcus aureus [1] is 8 µg/mL; against Staphylococcus aureus [2] it was 8 µg/mL; against Acinetobacter baumannii [4] it was 32 µg/mL; against Escherichia coli [7] it was 8 µg/mL; in [8], 4 µg/mL; in the experiment with Acinetobacter baumannii [9], 16 µg/mL. The results for the MIC (in experiment [10]; in the experiment on Klebsiella pneumoniae) were 16 µg/mL and 64 µg/mL, respectively. The “inhibition (INH)” value with Acinetobacter baumannii [3] came to 96%; with Staphylococcus aureus [5], 98%; with Escherichia coli [6] it was 94%; in the experiment on Acinetobacter baumannii [11] it was 98%; in the experiment with Staphylococcus aureus [12] it was 91%.
As to `CCCCCCCCn1c(CCCCNC(=O)OCc2ccccc2)cnc1N.Cl`, the MIC in the experiment on Staphylococcus aureus [1] was found to be 16 µg/mL; with Staphylococcus aureus [2], 16 µg/mL; against Acinetobacter baumannii [4], 64 µg/mL; in the experiment with Escherichia coli [7] it was 8 µg/mL; in experiment [8], 2 µg/mL; against Acinetobacter baumannii [9] it was 64 µg/mL. In addition, the MIC was determined as 16 µg/mL in experiment [10] and 128 µg/mL against Klebsiella pneumoniae. For the same compound, the “inhibition (INH)” value in the experiment with Acinetobacter baumannii [3] was determined as 93%; in the experiment on Staphylococcus aureus [5] it was 91%; with Escherichia coli [6], 90%; in the experiment with Acinetobacter baumannii [11], 91%; in the experiment on Staphylococcus aureus [12] it was 84%.
Regarding `CCCCCCCCn1c(CC(C)C)cnc1N.Cl`, the MIC in the experiment on Staphylococcus aureus [1] was 8 µg/mL; in the experiment on Staphylococcus aureus [2] it was 16 µg/mL; against Acinetobacter baumannii [4], 16 µg/mL; against Escherichia coli [7] it was 2 µg/mL; in [8] it was 2 µg/mL; in the experiment on Acinetobacter baumannii [9] it was 16 µg/mL. The MIC in experiment [10] came out at 8 µg/mL; in the experiment with Klebsiella pneumoniae, 64 µg/mL. Moreover, the “inhibition (INH)” value in the experiment on Acinetobacter baumannii [3] turned out to be 97%; with Staphylococcus aureus [5], 93%; in the experiment with Escherichia coli [6] it was 88%; in the experiment with Acinetobacter baumannii [11] it was 96%; with Staphylococcus aureus [12], 97%.
Turning to `CCCCCCc1cnc(N)n1CCCCC.Cl`, the MIC amounted to 32 µg/mL against Staphylococcus aureus [1]; 32 µg/mL in the experiment on Staphylococcus aureus [2]; 64 µg/mL in the experiment with Acinetobacter baumannii [4]; 32 µg/mL against Escherichia coli [7]; 8 µg/mL in experiment [8]; 64 µg/mL in the experiment on Acinetobacter baumannii [9]. Also, the figures for the MIC (in [10]; in the experiment on Klebsiella pneumoniae) were 32 µg/mL and 64 µg/mL, respectively. Besides, the “inhibition (INH)” value with Acinetobacter baumannii [3] turned out to be 97%; with Staphylococcus aureus [5], 92%; in the experiment with Escherichia coli [6], 97%; in the experiment on Staphylococcus aureus [12] it was 98%. Besides, the inhibition result in the experiment with Acinetobacter baumannii [11] was “inactive”.

Values taken from ChEMBL document CHEMBL1806468, “A facile synthesis of 1,5-disubstituted-2-aminoimidazoles: antibiotic activity of a first generation library” (2011).
